Reference: patent US9578878B2, “Antimicrobial efficacy of an oregano oil and caprylic acid blend” (Kemin Industries, Inc., priority 2014, dated 2017)

What was measured:
[1] = test system: Escherichia coli (ATCC #8739); assay: Preservative efficacy testing in cream, Example 2 (Study 1 and 2); format: cell-based; settings: Study 1, cream with 0.5% or 1.0% caprylic acid, after 3 days
Description: (§1) Oregano essential oil containing 67.8% carvacrol (lot number 628034, thymol was not detectable) was received from Kemin SCI. Caprylic acid was obtained from Fisher Scientific (catalog number AC12939). To make MicroCurb OC, a blend with 10% oregano essential oil and 90% caprylic acid (w/w) was prepared for initial testing. The solution was mixed thoroughly for 10 seconds by a vortex mixer until a clear, homogenous mixture was obtained, resulting in the product MicroCurb OC.
(§2) Creams were prepared aseptically by spraying 70% isopropyl alcohol on all surfaces and glassware. Preservative studies were completed at different times for caprylic acid alone (Study 1) and MicroCurb OC (Study 2). Tables 5 and 6 list the various ingredients and their percentages used in Study 1 and 2, respectively.
(§3) De-ionized water was added to a pre-weighed 250 mL beaker and mixed at 800 rpm using an overhead mixer (Eurostar power-b IKA-WERKE, Wilmington, N.C.) with a 3 blade impeller. Carbomer 940 was slowly added to the center of the mixing water. The mixture was hydrated for 30 minutes while covered with aluminum foil. Glycerin and Lysofix were slowly added to the solution. After solution appeared homogenous, safflower oil, olive oil, and coco caprylate were slowly added to the mixture at 1000 rpm. The solution was mixed for 30 minutes while covered with aluminum foil. Next the pH was measured (around 3.2) and adjusted to 5.5 with a 33.3% sodium hydroxide solution. The mixing speed was increased to 1400 rpm. From time to time, it was necessary to scrape the sides of the beaker with a spatula to ensure that the cream became homogenized. After 5 minutes, the cream was weighed and water was replenished for the mass lost during the processing.
(§4) Microorganisms Escherichia coli (ATCC #8739), Staphylococcus aureus (ATCC #6538), Pseudomonas aeruginosa (ATCC #9027), and Candida albicans (ATCC #10231) were obtained from −80° C. internal stock cultures. Aspergillus brasiliensis (ATCC #16404) was obtained from an internal stock solution stored at 4° C. E. coli, S. aureus, and P. aeruginosa were grown in TSB and incubated at 37° C. for 24 h. A. brasiliensis was plated on SDA and incubated at 25° C. for 5-7 days. C. albicans was grown in SDB and incubated at 25° C. for 48 h.
(§5) Pathogens in broth were harvested by centrifugation (2400 rpm, 20 minutes) and suspended in sterile phosphate buffer. A. brasiliensis was harvested by adding 18 mL sterile phosphate buffer to the plate and agitating the mold from the agar with a sterile inoculating loop. The spores were collected upon agitation. All suspended microbes were diluted with sterile phosphate buffer until a concentration in the range of 10^8 CFU/mL was achieved. The concentration was determined by plate count method. Each strain was identified by plating on the appropriate growth media, E. coli, S. aureus, and P. aeruginosa on TSA and C. albicans and A. brasiliensis on SDA, to ensure there was no contamination of the inoculum.
(§6) Preservative Efficacy Testing. Each tube was inoculated with the standardized microbial suspensions, using a ratio of 1 mL to 10 grams of the product, ensuring that the inoculum after suspension would yield the target level of 6-log CFU/g cream. For every testing time point, the sample was enumerated by sampling 1 g from the original product containers, serial dilution, and streaking plates containing the appropriate growth media to test colonization in duplicate. The inoculated plates were incubated at 25° C. for C. albicans and A. niger and 37° C. for E. coli, S. aureus, and P. aeruginosa. The number of viable microorganisms per gram was calculated via plate count method. The samples were enumerated on day 0, 2, 3, 5, 7, 14, and 28.
(§7) The plate counts obtained each day were averaged for each treatment. The results were shown graphically by the log count of each averaged value per treatment per day. For plates that had no growth, the lowest dilution plated was recorded.

[2] = test system: Pseudomonas aeruginosa (ATCC #9027); assay: as above; format: cell-based; settings: Study 1, cream with 0.5% or 1.0% caprylic acid, after 2 days
Description: as §1, §2, §3, §4, §5, §6, §7

## CCCCCCCC(=O)O [Caprylic Acid, octanoic acid]
[1]
  Log reduction of E. coli: 5 log
[2]
  Log reduction of P. aeruginosa: 5 log
